Earlier results, collected in PubChem BioAssay AID1259409 (Chemical Carcinogenesis Research Information System (CCRIS), 2018).
Where “and” joins values, the source holds several entries; their conditions need not be identical. Equal entries are not always repeated.

Tested on: rodent chemically induced tumor inhibition, incidence and multiplicity
Test: CCRIS tumor inhibitor studies
Conditions: for tumour outcome (control, treated, inhibition, significance): Route [Inhibitor]: ORAL, Promoter: NONE USED; for outcome: Carcinogen: 2-Amino-1-methyl-6-phenylimidazo[4,5-b]pyridine (105650-23-5), Dose [Inhibitor]: 0.2% in drinking water for 4 wk (Study duration 48 wk), Route [Inhibitor]: Oral, Species: Rat, Strain/Sex: Sprague Dawley/Female, Dose [Carcinogen]: 100 mg/kg twice a wk for 4 wk (Test material solvent: corn oil), Promoter: None used

In the case of O=[Se]=O, the “tumour outcome (control, treated, inhibition, significance)” value (Carcinogen: N-2-FLUORENYLACETMIDE, 53-96-3, Dose [Inhibitor]: 0.1 PPM IN DIET DAILY STARTING SIMULTANEOUSLY WITH CARCINOGEN TREATMENT AT AGE 35 D AND CONTINUING FOR DURATION OF STUDY, Species: RAT, Strain/Sex: OSU-BROWN/FEMALE, Target Tissue: Type of Lesion: LIVER: HEPATOMA, Dose [Carcinogen]: 150 PPM IN DIET DAILY FOR DURATION OF STUDY) is given as 85%, 100%, -18%, not calculated, the “tumour outcome (control, treated, inhibition, significance)” value (Carcinogen: N-2-FLUORENYLACETMIDE, 53-96-3, Dose [Inhibitor]: 0.1 PPM IN DIET DAILY STARTING SIMULTANEOUSLY WITH CARCINOGEN TREATMENT AT AGE 35 D AND CONTINUING FOR DURATION OF STUDY, Species: RAT, Strain/Sex: OSU-BROWN/FEMALE, Target Tissue: Type of Lesion: MAMMARY GLAND: ADENOCARCINOMA, Dose [Carcinogen]: 150 PPM IN DIET DAILY FOR DURATION OF STUDY) is given as 94%, 100%, -6%, not calculated and the “tumour outcome (control, treated, inhibition, significance)” value (Carcinogen: N-2-FLUORENYLACETMIDE, 53-96-3, Dose [Inhibitor]: 0.5 PPM IN DIET DAILY STARTING SIMULTANEOUSLY WITH CARCINOGEN TREATMENT AT AGE 35 D AND CONTINUING FOR DURATION OF STUDY, Species: RAT, Strain/Sex: OSU-BROWN/FEMALE, Target Tissue: Type of Lesion: LIVER: HEPATOMA, Dose [Carcinogen]: 150 PPM IN DIET DAILY FOR DURATION OF STUDY) is given as 85%, 80%, 6%, not calculated. The “tumour outcome (control, treated, inhibition, significance)” value (Carcinogen: N-2-FLUORENYLACETMIDE, 53-96-3, Dose [Inhibitor]: 0.5 PPM IN DIET DAILY STARTING SIMULTANEOUSLY WITH CARCINOGEN TREATMENT AT AGE 35 D AND CONTINUING FOR DURATION OF STUDY, Species: RAT, Strain/Sex: OSU-BROWN/FEMALE, Target Tissue: Type of Lesion: MAMMARY GLAND: ADENOCARCINOMA, Dose [Carcinogen]: 150 PPM IN DIET DAILY FOR DURATION OF STUDY) was 94%, 85%, 10%, not calculated, the “tumour outcome (control, treated, inhibition, significance)” value (Carcinogen: N-2-FLUORENYLACETMIDE, 53-96-3, Dose [Inhibitor]: 2.5 PPM IN DIET DAILY STARTING SIMULTANEOUSLY WITH CARCINOGEN TREATMENT AT AGE 35 D AND CONTINUING FOR DURATION OF STUDY, Species: RAT, Strain/Sex: OSU-BROWN/FEMALE, Target Tissue: Type of Lesion: LIVER: HEPATOMA, Dose [Carcinogen]: 150 PPM IN DIET DAILY FOR DURATION OF STUDY) was 85%, 50%, 41%, not calculated and the “tumour outcome (control, treated, inhibition, significance)” value (Carcinogen: N-2-FLUORENYLACETMIDE, 53-96-3, Dose [Inhibitor]: 2.5 PPM IN DIET DAILY STARTING SIMULTANEOUSLY WITH CARCINOGEN TREATMENT AT AGE 35 D AND CONTINUING FOR DURATION OF STUDY, Species: RAT, Strain/Sex: OSU-BROWN/FEMALE, Target Tissue: Type of Lesion: MAMMARY GLAND: ADENOCARCINOMA, Dose [Carcinogen]: 150 PPM IN DIET DAILY FOR DURATION OF STUDY) was 94%, 68%, 28%, not calculated. The “tumour outcome (control, treated, inhibition, significance)” value (Carcinogen: NONE USED, Dose [Inhibitor]: 0.1 PPM IN DRINKING WATER DAILY FOR 22 MO STARTING AT AGE 2 MO AND CONTINUING FOR DURATION OF STUDY (STUDY DURATION: 22, Species: MOUSE, Strain/Sex: C3H/FEMALE, Target Tissue: Type of Lesion: MAMMARY GLAND: ADENOCARCINOMA) was 42%, 25%, 40%, not calculated, the “tumour outcome (control, treated, inhibition, significance)” value (Carcinogen: NONE USED, Dose [Inhibitor]: 0.5 PPM IN DRINKING WATER DAILY FOR 22 MO STARTING AT AGE 2 MO AND CONTINUING FOR DURATION OF STUDY (STUDY DURATION: 22, Species: MOUSE, Strain/Sex: C3H/FEMALE, Target Tissue: Type of Lesion: MAMMARY GLAND: ADENOCARCINOMA) was 42%, 19%, 55%, not calculated and the “tumour outcome (control, treated, inhibition, significance)” value (Carcinogen: NONE USED, Dose [Inhibitor]: 1 PPM IN DRINKING WATER DAILY FOR 22 MO STARTING AT AGE 2 MO AND CONTINUING FOR DURATION OF STUDY (STUDY DURATION: 22 MO, Species: MOUSE, Strain/Sex: C3H/FEMALE, Target Tissue: Type of Lesion: MAMMARY GLAND: ADENOCARCINOMA) was 42%, 10%, 76%, not calculated. For the same compound, the “tumour outcome (control, treated, inhibition, significance)” value (Carcinogen: NONE USED, Dose [Inhibitor]: 2 PPM IN DRINKING WATER DAILY FOR DURATION OF STUDY (STUDY DURATION: 16 MO), Species: MOUSE, Strain/Sex: C3H/FEMALE, Target Tissue: Type of Lesion: MAMMARY GLAND: ADENOCARCINOMA) was 82%, 10%, 88%, not calculated, the “tumour outcome (control, treated, inhibition, significance)” value (Carcinogen: NONE USED, Dose [Inhibitor]: 5 PPM IN DRINKING WATER DAILY STARTING AT AGE 1 MO AND CONTINUING FOR LIFE (STUDY DURATION: LIFE), Species: MOUSE, Strain/Sex: C3H/FEMALE, Target Tissue: Type of Lesion: MAMMARY GLAND: TUMOR) was 82%, 36%, 56%, p<0.005 and the “tumour outcome (control, treated, inhibition, significance)” value (Carcinogen: NONE USED, Dose [Inhibitor]: 15 PPM IN DRINKING WATER DAILY STARTING AT AGE 1 MO AND CONTINUING FOR LIFE (STUDY DURATION: LIFE), Species: MOUSE, Strain/Sex: C3H/FEMALE, Target Tissue: Type of Lesion: MAMMARY GLAND: TUMOR) was 82%, 33%, 60%, p<0.005.

For O=NO, the “tumour outcome (control, treated, inhibition, significance)” value (Carcinogen: 2-AMINO-1-METHYL-6-PHENYL-1H-IMIDAZO[4,5-B]PYRID INE, 105650-23-5, Dose [Inhibitor]: 0, 0.2% IN DRINKING WATER FOR 4 WK BEGINNING AT 6 WK OF AGE (STUDY DURATION: 48 WK), Species: RAT, Strain/Sex: SPRAGUE-DAWLEY/FEMALE, Target Tissue: Type of Lesion: MAMMARY GLAND: ADENOCARCINOMA, Dose [Carcinogen]: 100 MG/KG BW 2/WK FOR 4 WK CONCURRENT WITH INHIBITOR) is listed as 11/20 (55%), 6/10 (60%), -9%, not significant, the “tumour outcome (control, treated, inhibition, significance)” value (Carcinogen: 2-AMINO-1-METHYL-6-PHENYL-1H-IMIDAZO[4,5-B]PYRID INE, 105650-23-5, Dose [Inhibitor]: 0, 0.2% IN DRINKING WATER FOR 4 WK BEGINNING AT 6 WK OF AGE (STUDY DURATION: 48 WK), Species: RAT, Strain/Sex: SPRAGUE-DAWLEY/FEMALE, Target Tissue: Type of Lesion: MAMMARY GLAND: FIBROADENOMA, Dose [Carcinogen]: 100 MG/KG BW 2/WK FOR 4 WK CONCURRENT WITH INHIBITOR) is listed as 3/20 (15%), 2/10 (20%), -33%, not significant and the outcome (Target Tissue: Type of Lesion: Mammary gland: Carcinoma) is listed as 11/20 (55%), 6/10 (60%), not significant. For the same compound, the outcome (Target Tissue: Type of Lesion: Mammary gland: Fibroadenoma) was 3/20 (15%), 2/10 (20%), not significant.

In the case of CC(=O)Oc1ccccc1C(=O)Oc1ccccc1C(=O)O, the “tumour outcome (control, treated, inhibition, significance)” value (Carcinogen: NONE USED, Dose [Inhibitor]: 0, 0.1% IN CHOLINE-DEFICIENT DIET FOR 30 WK (STUDY DURATION: 30 WK), Species: RAT, Strain/Sex: F344/MALE, Target Tissue: Type of Lesion: LIVER: NEOPLASTIC NODULE) is listed as 8/8 (100%), 10/10 (100%), 0%, not significant and 4/4 (100%), 3/3 (100%), 0%, not significant, the “tumour outcome (control, treated, inhibition, significance)” value (Carcinogen: NONE USED, Dose [Inhibitor]: 0, 0.2% IN CHOLINE-DEFICIENT DIET FOR 30 WK (STUDY DURATION: 30 WK), Species: RAT, Strain/Sex: F344/MALE, Target Tissue: Type of Lesion: LIVER: NEOPLASTIC NODULE) is listed as 8/8 (100%), 4/11 (36%), 64%, p<0.05 and 4/4 (100%), 3/3 (100%), 0%, not significant and the “tumour outcome (control, treated, inhibition, significance)” value (Carcinogen: NONE USED, Dose [Inhibitor]: 0, 0.4% IN CHOLINE-DEFICIENT DIET FOR 30 WK (STUDY DURATION: 30 WK), Species: RAT, Strain/Sex: F344/MALE, Target Tissue: Type of Lesion: LIVER: NEOPLASTIC NODULE) is listed as 4/4 (100%), 0/4 (0%), 100%, p<0.05. For the same compound, the “tumour outcome (control, treated, inhibition, significance)” value (Carcinogen: NONE USED, Dose [Inhibitor]: 0, 0.8% IN CHOLINE-DEFICIENT DIET FOR 30 WK (STUDY DURATION: 30 WK), Species: RAT, Strain/Sex: F344/MALE, Target Tissue: Type of Lesion: LIVER: NEOPLASTIC NODULE) was 4/4 (100%), 0/3 (0%), 100%, p<0.05.
